Test system: 695427-040-R-J1-PDC complex spheroid viability
Test: Anticancer human tumor 695427-040-R-J1-PDC patient-derived colon adenocarcinoma cell line growth inhibition [RAS]
Conditions: for viability, T/C: stronger effect = lower value
Excerpt: RAS pathway inhibitors in Combinations in Complex Spheroids
A high-throughput screen of multi-cell type tumor spheroids was designed to identify active combinations of RAS pathway inhibitors and targeted small molecules. Complex spheroids include a stromal component modeled by human endothelial cells (HUVEC) and fibroblasts modeled by human mesenchymal stem cells (MSCs). The concentration ranges selected for each drug and investigational agent were based upon clinically achievable concentrations if the clinical Cmax of the agent was known.
Compounds. The drugs and investigational agents: abemaciclib (NSC768073), cobimetinib (NSC768068), divarasib (GDC6063, NSC841802), docetaxel (NSC628503), GDC-1971 (RLY-1971, NSC841576), gemcitabine (NSC613327), inavolisib (NSC800729), ipatasertib (NSC767898), KB-0742 (NSC834161), MRTX-1133 (NSC836407), osimertinib (NSC779217), RMC-4630 (NSC839698), RMC-6236 (NSC851965), RMC-6291 (NSC852671), Ro-3306 (NSC812927), sapanisertib (NSC764658), SN-38 (NSC673596), staurosporine (NSC755774), SY5609 (NSC837396), and tovorafenib (DAY101, NSC766906), were obtained from the National Cancer Institute (NCI) Developmental Therapeutics Program Chemical Repository. The FDA-approved anticancer drug set is available from the NCI Developmental Therapeutics Program. […] The stock solutions were prepared in dimethyl sulfoxide (DMSO, Sigma-Aldrich, St. Louis, MO, cat. D2650) at 800-fold the tested concentration and stored at -70 degrees C prior to their use. All drugs and investigational agents were tested over a range starting from a high concentration at or near the clinical Cmax and decreasing in half-log increments. If the clinical Cmax for an agent had not been determined, the highest concentration tested was 10 microM.
Cell Culture. All cells were maintained in an incubator at 37 degrees C and 5% CO2 with 95% humidity. The PDC lines were cultured according to standard operating procedures established by the NCI PDMR. All PDCs were thawed and cultured in Matrigel-coated flasks prepared with a working solution of 1X Ham's F-12 nutrient mix, without supplementation (Invitrogen, Waltham, MA, cat. 11765054), 100 U/mL penicillin-streptomycin (Invitrogen, cat. 15140122), and 2.5% Matrigel (Corning Inc., Corning, NY, cat. 354248) for the first three passages. The 362531-283-R-J2-PDC and 782815-120-R-J1-PDC lines were cultured in 6C/Colon 1B media, which includes advanced DMEM/F-12 (Thermo Fisher Scientific, cat. 12634028), 10 mM HEPES (Thermo Fisher Scientific, cat. 15630080), 1X GlutaMAX supplement (Thermo Fisher Scientific, cat. 35050061), 0.1 mg/mL primocin (InvivoGen, San Diego, CA, cat. ant-pm-2), 10% defined fetal bovine serum, heat inactivated (HyClone Laboratories Inc., Logan, UT, cat. SH30070.03HI), 50% L-WRN conditioned media (ATCC, cat. CRL-3276), 1.25 mM N-Acetyl-L-cysteine (Sigma-Aldrich, cat. A9165), 10 mM nicotinamide (Sigma-Aldrich, cat. N0636), 1X B-27 supplement (Thermo Fisher Scientific, cat. 17504044), 1X N-2 supplement (Thermo Fisher Scientific, cat. 17502048), 50 ng/mL human EGF (Thermo Fisher Scientific, cat. PHG0311), and 10 microM Y-27632 dihydrochloride (Tocris Bioscience, cat. 1254). The K12877-001-R-J1-PDC line was cultured in 6I media, which includes all 6C/Colon 1B media plus 10 ng/mL human FGF-10 (PeproTech, cat. 100-26), 1 ng/mL human FGF-2 (PeproTech, cat. 100-18B), 1 µM prostaglandin E2 (Tocris Bioscience, cat. 2296), […] hydrocortisone (Sigma-Aldrich, cat. H4001), and […] bovine insulin (Sigma-Aldrich, cat. I6634). The K86415-001-R-J1-PDC line was cultured in 6D media, which includes all 6C/Colon 1B media components minus the L-WRN conditioned media. The 485176-168-R4-J1-PDC was cultured in PANC media, which includes all 6C/Colon 1B media plus 100 ng/mL human FGF-10 (PeproTech, cat. 100-26), 500 nM SB-431542 (Selleckchem, cat. S1067), and 10 nM gastrin (Tocris Bioscience, cat. 3006). […]
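Further: viability read after seven days of drug exposure.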
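Wherever viability, T/C is given: 100% = DMSO vehicle control viability.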

Q: Which results are given for `CC(C)n1nc(-c2ccc3oc(N)nc3c2)c2c(N)ncnc21` + C=CC(=O)N1CCN(c2nc(OCC3CCCN3C)nc3c(F)c(-c4nc(N)cc(C)c4C(F)(F)F)c(Cl)cc23)C(C)C1?
A: IC50 (curve of first compound, second compound 0.00316 µM): > 100 nM; IC50 (curve of first compound, second compound 0.01 µM): > 100 nM; IC50 (curve of first compound, second compound 0.0316 µM): > 100 nM; IC50 (curve of first compound, second compound 0.1 µM): > 100 nM; IC50 (curve of first compound, second compound 0.316 µM): > 100 nM; IC50 (curve of first compound, second compound 1 µM): > 100 nM; viability, T/C (second compound 0.00316 µM, first compound 0.000316 µM): 98.5%; viability, T/C (second compound 0.00316 µM, first compound 0.001 µM): 96.5%; viability, T/C (second compound 0.00316 µM, first compound 0.00316 µM): 82.4%; viability, T/C (second compound 0.00316 µM, first compound 0.01 µM): 80.2%; viability, T/C (second compound 0.00316 µM, first compound 0.0316 µM): 72.2%; viability, T/C (second compound 0.00316 µM, first compound 0.1 µM): 61.8%; viability, T/C (second compound 0.01 µM, first compound 0.000316 µM): 106%; viability, T/C (second compound 0.01 µM, first compound 0.001 µM): 87.4%; viability, T/C (second compound 0.01 µM, first compound 0.00316 µM): 96.5%; viability, T/C (second compound 0.01 µM, first compound 0.01 µM): 79.9%; viability, T/C (second compound 0.01 µM, first compound 0.0316 µM): 70.9%; viability, T/C (second compound 0.01 µM, first compound 0.1 µM): 58.1%; viability, T/C (second compound 0.0316 µM, first compound 0.000316 µM): 101%; viability, T/C (second compound 0.0316 µM, first compound 0.001 µM): 89.8%; viability, T/C (second compound 0.0316 µM, first compound 0.00316 µM): 86%; viability, T/C (second compound 0.0316 µM, first compound 0.01 µM): 75%; viability, T/C (second compound 0.0316 µM, first compound 0.0316 µM): 76.5%; viability, T/C (second compound 0.0316 µM, first compound 0.1 µM): 65%; viability, T/C (second compound 0.1 µM, first compound 0.000316 µM): 103%; viability, T/C (second compound 0.1 µM, first compound 0.001 µM): 96.1%; viability, T/C (second compound 0.1 µM, first compound 0.00316 µM): 90%; viability, T/C (second compound 0.1 µM, first compound 0.01 µM): 77%; viability, T/C (second compound 0.1 µM, first compound 0.0316 µM): 70.4%; viability, T/C (second compound 0.1 µM, first compound 0.1 µM): 66.7%; viability, T/C (second compound 0.316 µM, first compound 0.000316 µM): 101%; viability, T/C (second compound 0.316 µM, first compound 0.001 µM): 88.6%; viability, T/C (second compound 0.316 µM, first compound 0.00316 µM): 88.8%; viability, T/C (second compound 0.316 µM, first compound 0.01 µM): 84%; viability, T/C (second compound 0.316 µM, first compound 0.0316 µM): 69.9%; viability, T/C (second compound 0.316 µM, first compound 0.1 µM): 61.6%; viability, T/C (second compound 1 µM, first compound 0.000316 µM): 98.4%; viability, T/C (second compound 1 µM, first compound 0.001 µM): 87.1%; viability, T/C (second compound 1 µM, first compound 0.00316 µM): 88.3%; viability, T/C (second compound 1 µM, first compound 0.01 µM): 78.3%; viability, T/C (second compound 1 µM, first compound 0.0316 µM): 72.6%; viability, T/C (second compound 1 µM, first compound 0.1 µM): 63.4%

Q: Which viability, T/C (compound 0.000949 µM) does the source give for `CCc1c2c(nc3ccc(O)cc13)-c1cc3c(c(=O)n1C2)COC(=O)[C@]3(O)CC` here?
A: Its viability, T/C is 91.9% [middle of 4 runs].

Q: What about the viability, T/C (compound 0.003 µM) of the same molecule?
A: The viability, T/C was 96.8% [middle of 4 runs].

Q: And the viability, T/C (compound 0.00949 µM)?
A: Its viability, T/C is 86.8% [middle of 4 runs].

Q: What about the viability, T/C (compound 0.03 µM) of the same molecule?
A: The viability, T/C was 73.4% [middle of 4 runs].

Q: And the viability, T/C (compound 0.0949 µM)?
A: The viability, T/C was 52.8% [middle of 4 runs].

Q: And the viability, T/C (compound 0.3 µM)?
A: Its viability, T/C is 34.5% [middle of 4 runs].

Q: And the IC50 (curve of compound)?
A: Its IC50 is 114 nM [middle of 4 runs].
